The source made the active and inactive calls. The rule behind the calls is not given here.
Tested on: CCRIS mutagenicity, Ames/micronucleus/aberration tests
Assay: CCRIS mutagenicity studies

Structure (SMILES): CNNCc1ccc(C(=O)NC(C)C)cc1
- mutagenic call (Test System: AMES SALMONELLA TYPHIMURIUM, Strain/Indicator: TA97, Metabolic Activation: HAMSTER, LIVER, S-9, AROCLOR 1254 (10 OR 30%), Method: PREINCUBATION): inactive; negative
- mutagenic call (Test System: AMES SALMONELLA TYPHIMURIUM, Strain/Indicator: TA97, Metabolic Activation: NONE, Method: PREINCUBATION): inactive; negative
- mutagenic call (Test System: AMES SALMONELLA TYPHIMURIUM, Strain/Indicator: TA97, Metabolic Activation: RAT, LIVER, S-9, AROCLOR 1254 (10 OR 30%), Method: PREINCUBATION): inactive; negative
- mutagenic call (Test System: AMES SALMONELLA TYPHIMURIUM, Strain/Indicator: TA98, Metabolic Activation: HAMSTER, LIVER, S-9, AROCLOR 1254 (10 OR 30%), Method: PREINCUBATION): inactive; negative
- mutagenic call (Test System: AMES SALMONELLA TYPHIMURIUM, Strain/Indicator: TA98, Metabolic Activation: NONE, Method: PREINCUBATION): inactive; negative
- mutagenic call (Test System: AMES SALMONELLA TYPHIMURIUM, Strain/Indicator: TA98, Metabolic Activation: NONE, Method: STANDARD PLATE): inactive; negative
- mutagenic call (Test System: AMES SALMONELLA TYPHIMURIUM, Strain/Indicator: TA98, Metabolic Activation: RAT, LIVER, S-9, AROCLOR 1254 (10 OR 30%), Method: PREINCUBATION): inactive; negative
- mutagenic call (Test System: AMES SALMONELLA TYPHIMURIUM, Strain/Indicator: TA98, Metabolic Activation: S-9, Method: PREINCUBATION): inactive; negative
- mutagenic call (Test System: AMES SALMONELLA TYPHIMURIUM, Strain/Indicator: TA98, Metabolic Activation: S-9, Method: STANDARD PLATE): inactive; negative
- mutagenic call (Test System: AMES SALMONELLA TYPHIMURIUM, Strain/Indicator: TA100, Metabolic Activation: HAMSTER, LIVER, S-9, AROCLOR 1254 (10 OR 30%), Method: PREINCUBATION): inactive; negative
- mutagenic call (Test System: AMES SALMONELLA TYPHIMURIUM, Strain/Indicator: TA100, Metabolic Activation: NONE, Method: PREINCUBATION): inactive; negative
- mutagenic call (Test System: AMES SALMONELLA TYPHIMURIUM, Strain/Indicator: TA100, Metabolic Activation: NONE, Method: STANDARD PLATE): inactive; negative
- mutagenic call (Test System: AMES SALMONELLA TYPHIMURIUM, Strain/Indicator: TA100, Metabolic Activation: RAT, LIVER, S-9, AROCLOR 1254 (10 OR 30%), Method: PREINCUBATION): inactive; negative
- mutagenic call (Test System: AMES SALMONELLA TYPHIMURIUM, Strain/Indicator: TA100, Metabolic Activation: RAT, LIVER, S-9, PYRAZOLE, Method: PREINCUBATION): inactive; negative
- mutagenic call (Test System: AMES SALMONELLA TYPHIMURIUM, Strain/Indicator: TA100, Metabolic Activation: S-9, Method: PREINCUBATION): inactive; negative
- mutagenic call (Test System: AMES SALMONELLA TYPHIMURIUM, Strain/Indicator: TA100, Metabolic Activation: S-9, Method: STANDARD PLATE): inactive; negative
- mutagenic call (Test System: AMES SALMONELLA TYPHIMURIUM, Strain/Indicator: TA1530 (PKM101), Metabolic Activation: RAT, LIVER, S-9, ETHANOL, Method: PREINCUBATION): inactive; negative
- mutagenic call (Test System: AMES SALMONELLA TYPHIMURIUM, Strain/Indicator: TA1530 (PKM101), Metabolic Activation: RAT, LIVER, S-9, PYRAZOLE, Method: PREINCUBATION): inactive; negative
- mutagenic call (Test System: AMES SALMONELLA TYPHIMURIUM, Strain/Indicator: TA1535, Metabolic Activation: HAMSTER, LIVER, S-9, AROCLOR 1254 (10 OR 30%), Method: PREINCUBATION): inactive; negative
- mutagenic call (Test System: AMES SALMONELLA TYPHIMURIUM, Strain/Indicator: TA1535, Metabolic Activation: NONE, Method: PREINCUBATION): inactive; negative
- mutagenic call (Test System: AMES SALMONELLA TYPHIMURIUM, Strain/Indicator: TA1535, Metabolic Activation: RAT, LIVER, S-9, AROCLOR 1254 (10 OR 30%), Method: PREINCUBATION): inactive; negative
- mutagenic call (Test System: AMES SALMONELLA TYPHIMURIUM, Strain/Indicator: TA1535, Metabolic Activation: RAT, LIVER, S-9, PYRAZOLE, Method: PREINCUBATION): inactive; negative
- mutagenic call (Test System: AMES SALMONELLA TYPHIMURIUM, Strain/Indicator: TA1537, Metabolic Activation: HAMSTER, LIVER, S-9, AROCLOR 1254 (10 OR 30%), Method: PREINCUBATION): inactive; negative
- mutagenic call (Test System: AMES SALMONELLA TYPHIMURIUM, Strain/Indicator: TA1537, Metabolic Activation: NONE, Method: PREINCUBATION): inactive; negative
- mutagenic call (Test System: AMES SALMONELLA TYPHIMURIUM, Strain/Indicator: TA1537, Metabolic Activation: RAT, LIVER, S-9, AROCLOR 1254 (10 OR 30%), Method: PREINCUBATION): inactive; negative
- mutagenic call (Test System: CHINESE HAMSTER OVARY, Strain/Indicator: CHO-K1-BH4 (HGPRT), Metabolic Activation: RAT, LIVER, S-9, AROCLOR, Method: SUSPENSION/PLATE): active; positive
- mutagenic call (Test System: CHINESE HAMSTER V-79, Strain/Indicator: V-79/6-THIOGUANINE, Metabolic Activation: NONE, Method: CELL-MEDIATED): active; positive
- mutagenic call (Test System: CHINESE HAMSTER V-79, Strain/Indicator: V-79/6-THIOGUANINE, Metabolic Activation: RAT, LIVER, HEPATOCYTES, AROCLOR 1254, Method: CELL-MEDIATED): active; positive
- mutagenic call (Test System: CHINESE HAMSTER V-79, Strain/Indicator: V-79/6-THIOGUANINE, Metabolic Activation: RAT, LIVER, HEPATOCYTES, Method: CELL-MEDIATED): active; positive
- mutagenic call (Test System: CHINESE HAMSTER V-79, Strain/Indicator: V-79/6-THIOGUANINE, Metabolic Activation: RAT, LIVER, S-9, AROCLOR 1254, Method: CELL-MEDIATED): active; positive
- mutagenic call (Test System: CHINESE HAMSTER V-79, Strain/Indicator: V-79/6-THIOGUANINE, Metabolic Activation: RAT, LIVER, S-9, Method: CELL-MEDIATED): active; positive
- mutagenic call (Test System: E. COLI, Strain/Indicator: WP2 (HCR), Metabolic Activation: NONE, Method: STANDARD PLATE): inactive; negative
- mutagenic call (Test System: E. COLI, Strain/Indicator: WP2 (HCR), Metabolic Activation: S-9, Method: STANDARD PLATE): inactive; negative
- mutagenic call (Test System: E. COLI, Strain/Indicator: WP2 (PKM101), Metabolic Activation: RAT, LIVER, S-9, PYRAZOLE, Method: PREINCUBATION): inactive; negative
- mutagenic call (Test System: E. COLI, Strain/Indicator: WP2 UVRA (PKM101), Metabolic Activation: RAT, LIVER, S-9, PYRAZOLE, Method: PREINCUBATION): inactive; negative
- mutagenic call (Test System: E. COLI, Strain/Indicator: WP2 UVRA, Metabolic Activation: HAMSTER, LIVER, S-9, AROCLOR 1254, Method: STANDARD PLATE): inactive; negative
- mutagenic call (Test System: E. COLI, Strain/Indicator: WP2 UVRA, Metabolic Activation: HAMSTER, LIVER, S-9, Method: STANDARD PLATE): inactive; negative
- mutagenic call (Test System: E. COLI, Strain/Indicator: WP2 UVRA, Metabolic Activation: MOUSE, LIVER, S-9, AROCLOR 1254, Method: STANDARD PLATE): inactive; negative
- mutagenic call (Test System: E. COLI, Strain/Indicator: WP2 UVRA, Metabolic Activation: MOUSE, LIVER, S-9, Method: STANDARD PLATE): inactive; negative
- mutagenic call (Test System: E. COLI, Strain/Indicator: WP2 UVRA, Metabolic Activation: NONE, Method: STANDARD PLATE): inactive; negative
- mutagenic call (Test System: E. COLI, Strain/Indicator: WP2 UVRA, Metabolic Activation: RAT, LIVER, S-9, AROCLOR 1254, Method: STANDARD PLATE): inactive; negative
- mutagenic call (Test System: E. COLI, Strain/Indicator: WP2 UVRA, Metabolic Activation: RAT, LIVER, S-9, Method: STANDARD PLATE): inactive; negative
- mutagenic call (Test System: MOUSE LYMPHOMA, Strain/Indicator: L5178Y (HGPRT), Metabolic Activation: NONE, Method: SUSPENSION/PLATE): active; positive
- mutagenic call (Test System: MOUSE LYMPHOMA, Strain/Indicator: L5178Y (TK+/TK-), Metabolic Activation: NONE, Method: MICROWELL): active; positive
- mutagenic call (Test System: MOUSE LYMPHOMA, Strain/Indicator: L5178Y (TK+/TK-), Metabolic Activation: NONE, Method: MINIWELL): active; positive
- mutagenic call (Test System: MOUSE LYMPHOMA, Strain/Indicator: L5178Y (TK+/TK-), Metabolic Activation: RAT, LIVER, S-9, AROCLOR 1242 AND 1254 (2:1), Method: SUSPENSION/PLATE): active; positive
- mutagenic call (Test System: MOUSE LYMPHOMA, Strain/Indicator: L5178Y (TK+/TK-), Metabolic Activation: RAT, LIVER, S-9, AROCLOR 1254, Method: SUSPENSION/PLATE): active; positive

Reference: PubChem BioAssay AID1259407 (Chemical Carcinogenesis Research Information System (CCRIS), 2018)
